Source: patent publication US20240092835A1, “NOVEL PEPTIDES CAPABLE OF ALTERING NK CELL ACTIVITY” (Massachusetts Institute of Technology, priority 2022, published 2024)
Where no end group is shown, it is not given here.

How the values were obtained:
NKG2A+/NKG2C− NK cells = assay: NK cell activation markers in NKG2A+/NKG2C- NK cells incubated with peptide and K562 expressing HLA-E (inhibition); type: cell-based, human; conditions: for percentage of CCL3+ NK cells / percentage of CD107a+ NK cells / percentage of IFNG+ NK cells / percentage of TNF+ NK cells: NKG2A+/NKG2C- NK cells, K562/HLA-E
Summary of the method: (§1)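 Percent-positive cells for NK activation surface markers were measured after NK cells met peptide-treated K562 cells expressing HLA-E. A decrease in that fraction was scored as inhibition and an increase as activation; NKG2A−/NKG2C− cells served as controls.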

NKG2A−/NKG2C+ NK cells = assay: NK cell activation markers in NKG2A-/NKG2C+ NK cells incubated with peptide and K562 expressing HLA-E (activation); type: cell-based, human; conditions: for percentage of CCL3+ NK cells / percentage of CD107+ NK cells / percentage of IFNG+ NK cells / percentage of TNF+ NK cells: NKG2A-/NKG2C+ NK cells, K562/HLA-E
Summary of the method: as §1

NKG2A−/NKG2C− NK cells = assay: NK cell activation markers in control NKG2A-/NKG2C- NK cells incubated with peptide and K562 expressing HLA-E; type: cell-based, human
Summary of the method: as §1

HLA-E = target: T1, HLA-E (Homo sapiens, UniProt P13747); assay: HLA-E surface stabilization assay with RMA-S/HLA-E cells; type: cell-based; conditions: 30 μM peptide, 16 hours; for HLA-E surface expression stability (GeoMFI): anti-HLA-E antibody
T1 construct: expressed in transfected cells; host or cells: RMA-S/HLA-E cells (antigen processing-defective lymphoma cell line)
T1 sequence (P13747 22-358): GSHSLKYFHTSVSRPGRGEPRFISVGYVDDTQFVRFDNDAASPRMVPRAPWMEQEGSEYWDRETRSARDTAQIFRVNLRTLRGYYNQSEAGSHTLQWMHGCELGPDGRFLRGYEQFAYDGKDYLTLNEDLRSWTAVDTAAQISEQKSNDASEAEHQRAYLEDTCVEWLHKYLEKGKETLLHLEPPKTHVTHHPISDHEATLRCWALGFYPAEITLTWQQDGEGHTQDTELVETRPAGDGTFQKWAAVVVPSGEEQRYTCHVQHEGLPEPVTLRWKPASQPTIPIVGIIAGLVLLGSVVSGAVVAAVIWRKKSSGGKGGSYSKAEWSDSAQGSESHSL
T1 sequence (P61769 21-119 partner): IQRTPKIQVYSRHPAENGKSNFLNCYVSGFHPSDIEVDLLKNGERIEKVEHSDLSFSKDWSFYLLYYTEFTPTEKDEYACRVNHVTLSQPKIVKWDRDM
Method: HLA-E surface expression was assessed by measuring geometric mean fluorescence intensity (GeoMFI) in RMA-S cells following immunofluorescence staining with an anti-HLA-E antibody (Table 14). Increased GeoMFI was indicative of increased HLA-E surface expression stability following novel peptide exposures (FIG. 3).

[1] = K562 expressing HLA-E, CD107a, IFNG, TNF, CCL3

TLPKRGLFL [human2, TLPKRGLFL]
effect on NKG2A+/NKG2C− NK cell inhibition (in words) (NKG2A+/NKG2C− NK cells; [1]): mild inhibitory effects | percentage of CCL3+ NK cells (NKG2A+/NKG2C− NK cells; Trial 1): 17.5% | percentage of CD107a+ NK cells (NKG2A+/NKG2C− NK cells; Trial 1): 10.8% | percentage of IFNG+ NK cells (NKG2A+/NKG2C− NK cells; Trial 1): 2.35% | percentage of TNF+ NK cells (NKG2A+/NKG2C− NK cells; Trial 1): 0.83% | percentage of CCL3+ NK cells (NKG2A+/NKG2C− NK cells; Trial 2): 34.9% | percentage of CD107a+ NK cells (NKG2A+/NKG2C− NK cells; Trial 2): 13% | percentage of IFNG+ NK cells (NKG2A+/NKG2C− NK cells; Trial 2): 2.85% | percentage of TNF+ NK cells (NKG2A+/NKG2C− NK cells; Trial 2): 1.25% | percentage of CCL3+ NK cells (NKG2A+/NKG2C− NK cells; Trial 3): 17.3% | percentage of CD107a+ NK cells (NKG2A+/NKG2C− NK cells; Trial 3): 16.7% | percentage of IFNG+ NK cells (NKG2A+/NKG2C− NK cells; Trial 3): 7.56% | percentage of TNF+ NK cells (NKG2A+/NKG2C− NK cells; Trial 3): 3.94% | percentage of CCL3+ NK cells (NKG2A+/NKG2C− NK cells; Trial 4): 13.3% | percentage of CD107a+ NK cells (NKG2A+/NKG2C− NK cells; Trial 4): 15.1% | percentage of IFNG+ NK cells (NKG2A+/NKG2C− NK cells; Trial 4): 2.41% | percentage of TNF+ NK cells (NKG2A+/NKG2C− NK cells; Trial 4): 1.74% | percentage of CCL3+ NK cells (NKG2A+/NKG2C− NK cells; Trial 5): 29.3% | percentage of CD107a+ NK cells (NKG2A+/NKG2C− NK cells; Trial 5): 14.4% | percentage of IFNG+ NK cells (NKG2A+/NKG2C− NK cells; Trial 5): 5.78% | percentage of TNF+ NK cells (NKG2A+/NKG2C− NK cells; Trial 5): 2.47% | percentage of CCL3+ NK cells (NKG2A+/NKG2C− NK cells; Trial 6): 16.2% | percentage of CD107a+ NK cells (NKG2A+/NKG2C− NK cells; Trial 6): 14% | percentage of IFNG+ NK cells (NKG2A+/NKG2C− NK cells; Trial 6): 3.48% | percentage of TNF+ NK cells (NKG2A+/NKG2C− NK cells; Trial 6): 2.18% | effect on NKG2A−/NKG2C+ NK cell activation (in words) (NKG2A−/NKG2C+ NK cells; [1]): strong activating effects | percentage of CCL3+ NK cells (NKG2A−/NKG2C+ NK cells; Trial 1): 80.9% | percentage of CD107+ NK cells (NKG2A−/NKG2C+ NK cells; Trial 1): 80% | percentage of IFNG+ NK cells (NKG2A−/NKG2C+ NK cells; Trial 1): 69.5% | percentage of TNF+ NK cells (NKG2A−/NKG2C+ NK cells; Trial 1): 57.3% | percentage of CCL3+ NK cells (NKG2A−/NKG2C+ NK cells; Trial 2): 92.4% | percentage of CD107+ NK cells (NKG2A−/NKG2C+ NK cells; Trial 2): 87.3% | percentage of IFNG+ NK cells (NKG2A−/NKG2C+ NK cells; Trial 2): 82.3% | percentage of TNF+ NK cells (NKG2A−/NKG2C+ NK cells; Trial 2): 72.6% | percentage of CCL3+ NK cells (NKG2A−/NKG2C+ NK cells; Trial 3): 86.1% | percentage of CD107+ NK cells (NKG2A−/NKG2C+ NK cells; Trial 3): 88.3% | percentage of IFNG+ NK cells (NKG2A−/NKG2C+ NK cells; Trial 3): 83% | percentage of TNF+ NK cells (NKG2A−/NKG2C+ NK cells; Trial 3): 73.8% | percentage of CCL3+ NK cells (NKG2A−/NKG2C+ NK cells; Trial 4): 71.8% | percentage of CD107+ NK cells (NKG2A−/NKG2C+ NK cells; Trial 4): 71.7% | percentage of IFNG+ NK cells (NKG2A−/NKG2C+ NK cells; Trial 4): 64.5% | percentage of TNF+ NK cells (NKG2A−/NKG2C+ NK cells; Trial 4): 56.2% | percentage of CCL3+ NK cells (NKG2A−/NKG2C+ NK cells; Trial 5): 75.8% | percentage of CD107+ NK cells (NKG2A−/NKG2C+ NK cells; Trial 5): 69.9% | percentage of IFNG+ NK cells (NKG2A−/NKG2C+ NK cells; Trial 5): 63.2% | percentage of TNF+ NK cells (NKG2A−/NKG2C+ NK cells; Trial 5): 57.8% | percentage of CCL3+ NK cells (NKG2A−/NKG2C+ NK cells; Trial 6): 62.1% | percentage of CD107+ NK cells (NKG2A−/NKG2C+ NK cells; Trial 6): 59.3% | percentage of IFNG+ NK cells (NKG2A−/NKG2C+ NK cells; Trial 6): 50.7% | percentage of TNF+ NK cells (NKG2A−/NKG2C+ NK cells; Trial 6): 41.1% | percentage CCL3+ NK cells (NKG2A−/NKG2C− NK cells; Trial 1): 31.9% | percentage CD107+ NK cells (NKG2A−/NKG2C− NK cells; Trial 1): 26.1% | percentage TNF+ NK cells (NKG2A−/NKG2C− NK cells; Trial 1): 4.12% | percentage of IFNG+ NK cells (NKG2A−/NKG2C− NK cells; Trial 1): 16.2% | percentage CCL3+ NK cells (NKG2A−/NKG2C− NK cells; Trial 2): 57.4% | percentage CD107+ NK cells (NKG2A−/NKG2C− NK cells; Trial 2): 34.1% | percentage TNF+ NK cells (NKG2A−/NKG2C− NK cells; Trial 2): 8.51% | percentage of IFNG+ NK cells (NKG2A−/NKG2C− NK cells; Trial 2): 24.9% | percentage CCL3+ NK cells (NKG2A−/NKG2C− NK cells; Trial 3): 49.9% | percentage CD107+ NK cells (NKG2A−/NKG2C− NK cells; Trial 3): 46.1% | percentage TNF+ NK cells (NKG2A−/NKG2C− NK cells; Trial 3): 15.8% | percentage of IFNG+ NK cells (NKG2A−/NKG2C− NK cells; Trial 3): 37.4% | percentage CCL3+ NK cells (NKG2A−/NKG2C− NK cells; Trial 4): 34.8% | percentage CD107+ NK cells (NKG2A−/NKG2C− NK cells; Trial 4): 30.1% | percentage TNF+ NK cells (NKG2A−/NKG2C− NK cells; Trial 4): 9.02% | percentage of IFNG+ NK cells (NKG2A−/NKG2C− NK cells; Trial 4): 18.9% | percentage CCL3+ NK cells (NKG2A−/NKG2C− NK cells; Trial 5): 25.6% | percentage CD107+ NK cells (NKG2A−/NKG2C− NK cells; Trial 5): 18.1% | percentage TNF+ NK cells (NKG2A−/NKG2C− NK cells; Trial 5): 6.52% | percentage of IFNG+ NK cells (NKG2A−/NKG2C− NK cells; Trial 5): 13.9% | percentage CCL3+ NK cells (NKG2A−/NKG2C− NK cells; Trial 6): 24.6% | percentage CD107+ NK cells (NKG2A−/NKG2C− NK cells; Trial 6): 19.1% | percentage TNF+ NK cells (NKG2A−/NKG2C− NK cells; Trial 6): 5.25% | percentage of IFNG+ NK cells (NKG2A−/NKG2C− NK cells; Trial 6): 10% | HLA-E surface expression stabilization strength (in words) (HLA-E): moderate | HLA-E surface expression stability (GeoMFI) (HLA-E; Trial 1): 2019 GeoMFI | HLA-E surface expression stability (GeoMFI) (HLA-E; Trial 2): 2029 GeoMFI | HLA-E surface expression stability (GeoMFI) (HLA-E; Trial 3): 1731 GeoMFI | HLA-E surface expression stability (GeoMFI) (HLA-E; Trial 4): 2795 GeoMFI | HLA-E surface expression stabilization strength, approximate GeoMFI (HLA-E; approximate value): approximately 2×10^3 GeoMFI
